Publication PMC5037861 (BMC Research Notes, 2016)

Columns and labels:
human B2R [1] = molecular target: T1, human B2R (Homo sapiens, UniProt P30411); assay: Competition of [3H]BK (3 nM) binding to HEK 293a cells stably expressing myc-tagged human B2R; settings: from binding competition IC50 values
T1 construct: expressed in transfected cells; host or cells: HEK 293a
T1 sequence (P30411 1-391): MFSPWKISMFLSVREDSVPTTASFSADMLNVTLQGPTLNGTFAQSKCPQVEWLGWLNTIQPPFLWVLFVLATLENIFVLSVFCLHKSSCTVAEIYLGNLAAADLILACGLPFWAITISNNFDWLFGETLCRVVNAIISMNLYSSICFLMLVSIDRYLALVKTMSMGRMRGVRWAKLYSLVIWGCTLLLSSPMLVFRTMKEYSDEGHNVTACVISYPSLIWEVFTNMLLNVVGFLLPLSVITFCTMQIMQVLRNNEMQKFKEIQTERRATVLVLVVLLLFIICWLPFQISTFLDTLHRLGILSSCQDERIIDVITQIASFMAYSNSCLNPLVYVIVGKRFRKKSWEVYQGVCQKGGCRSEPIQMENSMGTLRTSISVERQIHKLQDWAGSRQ
From the text: Values are the means ± SEM. of the number of duplicate determinations indicated by n. Average specific binding without competitor (100 %) averaged 133.8 fmol/well.

human myc-tagged B2Rs = system: T2, human myc-tagged B2Rs; assay: Cytofluorometry of detached HEK 293a cells stably expressing human myc-tagged B2Rs; type: cell-based
T2 construct: expressed in transfected cells; host or cells: HEK 293a
Description: A subclone of HEK 293 cells, called HEK 293a, originally obtained from Sigma-Aldrich was used in these experiments, either as a non-transfected cell type or as one stably expressing myc-tagged human B2Rs. These cells were grown in Dulbecco’s modified Eagle’s medium supplemented with 10 % fetal bovine serum, 1 % L-glutamine, and 1 % penicillin–streptomycin stock solutions (100×). Cells were detached using the protease-free Cell Dissociation Buffer (Invitrogen), incubated in D-MEM without serum at 37 °C for 30 min under agitation in the presence of a Cy7-conjugated ligands and other drugs, rapidly centrifuged (30 s, 11,000g) and resuspended in phosphate buffered saline. Then, the fluorescence of the cell suspensions was assessed using the BD SORP LSR II cell analyzer for the uptake of the as a function of stimulation and transgene expression. The cytofluorometry results were analyzed using the BD FACS DIVA software.

rabbit B2R-GFP = system: T3, rabbit B2R-GFP; assay: Confocal microscopy of HEK 293 cells stably expressing B2R-GFP; type: cell-based; settings: for infrared labeling of cells: followed by rinsing
T3 construct: expressed in transfected cells; host or cells: HEK 293

[2] = system: T4, β2-adrenoceptor-GFP Topaz fusion protein; assay: Confocal microscopy of HEK 293 cells transiently expressing β2-adrenoceptor-GFP Topaz (specificity control); type: cell-based; settings: for labeling of cells expressing β2-adrenoceptor-GFP Topaz: B-10665 10 nM, B-10666 100 nM, 30 min; for β2-adrenoceptor-GFP endocytosis: isoproterenol 100 nM 30 min, propranolol 1 μM pretreatment
T4 construct: expressed in transfected cells; host or cells: HEK 293 (transient, polyethylenimine); vector a gift from Prof; Michel Bouvier

endogenous B2R [3] = molecular target: T5, endogenous B2R (Homo sapiens, UniProt P30411); assay: Human isolated umbilical vein contractility assay; design: The human umbilical vein is a contractile bioassay for the endogenous B2R; from tissue; host or cells: human isolated umbilical vein (A2); slices of human umbilical cord (A8); settings: agonist contraction; based on an extrapolated concentration-effect curve
T5 sequence (P30411 1-391): T1 sequence (P30411 1-391)
Description: Local ethics review boards approved the anonymous use of segments of human umbilical cords obtained following elective cesarean sections; informed consent was obtained from the mothers. Novel Cy-7 conjugated B2R ligands were assayed via the contraction of the human isolated umbilical vein [9, 10]. Cumulative concentration effect curves were constructed for the agonist version and its potency compared to that of BK. […] Results are presented as mean ± SEM. Radioligand binding data were fitted by nonlinear regression to a one-site competition equation using a least-square method (Prism 5.0, GraphPad Software Inc., San Diego, CA, USA) and IC50 values with their 95 % confidence limits were calculated from this procedure. The same computer program was used to draw concentration-effect curves (least square fitting of sigmoidal dose–response equation with variable slope) and to derive contractile EC50 values.

endogenous B2R [4] = molecular target: T5, endogenous B2R; design: The human umbilical vein is a contractile bioassay for the endogenous B2R; from tissue; host or cells: human isolated umbilical vein (A2); settings: cited from earlier work; for pA2: antagonism of BK-induced contraction
human B2R [5] = molecular target: T1, human B2R; assay: IVIS infrared fluorescence imaging of cell wells, HEK 293a cells expressing human myc-B2R; type: cell-based; settings: 1–10 nM, 30 min, 37 °C
From the text: (§1) The apparatus was set in fluorescence mode with filters at 675 nm (excitation) and 831 nm (emission), medium binning and 60 s exposure time. This experiment exploited HEK 293a cells grown in 24-well plates that stably expressed either human or rat B2R sequences N-terminally tagged with the myc epitope. Expression of these receptors as a function of pharmacologic treatment was controlled in separate plates of cells that were not fixed or permeabilized using the binding of anti-myc monoclonal antibody (clone 4A6, Millipore, dilution 1:1000) added along goat horseradish peroxidase-conjugated anti-mouse IgG antibodies (Santa Cruz, dilution 1:1000). […] The resulting blue precipitate was photographed at the macroscopic scale.

rat B2R = system: T6, rat B2R; assay: IVIS infrared fluorescence imaging of cell wells, HEK 293a cells expressing rat myc-B2R; type: cell-based; settings: 1–10 nM, 30 min, 37 °C
T6 construct: expressed in transfected cells; host or cells: HEK 293a
From the text: as §1

endogenous B2R [6] = molecular target: T5, endogenous B2R; assay: IVIS infrared fluorescence imaging of slices of human umbilical cord; design: The human umbilical vein is a contractile bioassay for the endogenous B2R; from tissue; host or cells: human isolated umbilical vein (A2); slices of human umbilical cord (A8); settings: up to 250 nM, data not shown

N=C(N)NCCC[C@@H](N)C(=O)N[C@@H](CCCNC(=N)N)C(=O)N1CCC[C@H]1C(=O)N1C[C@H](O)C[C@H]1C(=O)NCC(=O)N[C@H](C(=O)N[C@@H](CO)C(=O)N1[C@H](C(=O)N[C@H](C(=O)N[C@@H](CCCNC(=N)N)C(=O)O)C2Cc3ccccc3C2)C[C@@H]2CCCC[C@@H]21)C1Cc2ccccc2C1 [Peptide B-9972, D-Arg-[Hyp^3,Igl^5,Oic^7,Igl^8]-BK, reference compound]
loss of affinity vs. parent peptide (human B2R [1]): ~ twofold

icatibant [reference compound]
competition of B-10665 binding (human myc-tagged B2Rs; icatibant applied 15 min before B-10665): extensive competition
prevention of B-10665 (10 nM) plasma membrane fluorescence (rabbit B2R-GFP; pretreatment of B2R-GFP-expressing cells): prevented

CN1C(=CC=C2C=C(C=CC3=[N+](CCCCCC(=O)N[C@H](CCCNC(=N)N)C(=O)N[C@@H](CCCNC(=N)N)C(=O)N4CCC[C@H]4C(=O)N4C[C@H](O)C[C@H]4C(=O)NCC(=O)N[C@H](C(=O)N[C@@H](CO)C(=O)N4[C@H](C(=O)N[C@H](C(=O)N[C@@H](CCCNC(=N)N)C(=O)O)C5Cc6ccccc6C5)C[C@@H]5CCCC[C@@H]54)C4Cc5ccccc5C4)c4ccccc4C3(C)C)CCC2)C(C)(C)c2ccccc21 [Peptide B-10666, Cy7-B-9972]
loss of affinity vs. parent peptide (human B2R [1]): ~ 35 fold
infrared labeling of cells (rabbit B2R-GFP; 30 min, 37 °C): did not label untransfected cells or icatibant-pretreated receptor-expressing cells
endocytosis of B2R-GFP (rabbit B2R-GFP; 30 min, 37 °C, live cells): determined the endocytosis of a fraction of the plasma membrane receptors
labeling of cells expressing β2-adrenoceptor-GFP Topaz [2]: Lack of labeling
loss of potency vs. BK (endogenous B2R [3]): 4240 fold

N=C(N)NCCC[C@@H](N)C(=O)N[C@@H](CCCNC(=N)N)C(=O)N1CCC[C@H]1C(=O)N1C[C@H](O)C[C@H]1C(=O)NCC(=O)N[C@H](C(=O)N[C@@H](CO)C(=O)N[C@@H](C(=O)N1[C@H](C(=O)N[C@@H](CCCNC(=N)N)C(=O)O)C[C@@H]2CCCC[C@@H]21)C1Cc2ccccc2C1)C1Cc2ccccc2C1 [Peptide B-9430, D-Arg-[Hyp^3,Igl^5,D-Igl^7,Oic^8]-BK]
pA2 (endogenous B2R [4]): 7.7

FTC-B-9430
pA2 (endogenous B2R [4]): 6.96

fluorescein-5-thiocarbamoyl (FTC)-B-9972 [FTC-B-9972]
EC50 (endogenous B2R [4]; contraction): 0.108 µM

CN1C(=CC=C2C=C(C=CC3=[N+](CCCCCC(=O)N[C@H](CCCNC(=N)N)C(=O)N[C@@H](CCCNC(=N)N)C(=O)N4CCC[C@H]4C(=O)N4C[C@H](O)C[C@H]4C(=O)NCC(=O)N[C@H](C(=O)N[C@@H](CO)C(=O)N[C@@H](C(=O)N4[C@H](C(=O)N[C@@H](CCCNC(=N)N)C(=O)O)C[C@@H]5CCCC[C@@H]54)C4Cc5ccccc5C4)C4Cc5ccccc5C4)c4ccccc4C3(C)C)CCC2)C(C)(C)c2ccccc21 [Peptide B-10665, Cy7-B-9430]
loss of affinity vs. parent peptide (human B2R [1]): about equipotent to its parent peptide
binding detected by infrared fluorescence (cell labeling) (human myc-tagged B2Rs; 30 min, 37 °C, detached intact cells): specific binding that plateaued in the low nanomolar range
infrared labeling of cells (rabbit B2R-GFP; 30 min, 37 °C): labelled essentially plasma membranes in the infrared if and only if B2R-GFP was expressed
labeling of cells expressing β2-adrenoceptor-GFP Topaz [2]: Lack of labeling
infrared staining of cell wells (human B2R [5]): stained the cell wells (from a 24-well plate) in a concentration-dependent manner
infrared staining of cell wells (rat B2R): more so for the rat construction
detection of endogenous B2R (endogenous B2R [6]): could not detect endogenous B2R presence

CC(C)NCC(O)COc1cccc2ccccc12 (centres unmarked) [propranolol, reference compound]
β2-adrenoceptor-GFP endocytosis [2]: agonist-induced endocytosis was prevented

CC(C)NCC(O)c1ccc(O)c(O)c1 (centres unmarked) [isoproterenol, reference compound]
β2-adrenoceptor-GFP endocytosis [2]: the receptors are then translocated into endosomes
